Results: the supplement of paper PMC10307832

Each cell line was assayed with CCN1CCN(c2ccc(Nc3cc(N(C)C(=O)Nc4c(Cl)c(OC)cc(OC)c4Cl)ncn3)cc2)CC1 [BGJ398] + COc1cccc2cc(-c3nc([C@H]4CC[C@H](C(=O)O)CC4)n4ncnc(N)c34)[nH]c12 [OSI-027] (partner 0.5 µM) (assay: relative viability (nuclei count vs DMSO), 5 days (fraction); higher = more cells survive). Settings: first compound 0.01 µM.
Method in brief: (§1)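 For relative viability, nuclei counts in treated wells were divided by those in vehicle wells. Lung cancer cell lines had been pin-tool dosed in 1536-well plates the day after seeding and cultured for 5 days, then fixed and stained in one step (final 0.05% Triton X-100, 1% formaldehyde, 1 ug/ml Hoechst) and imaged at 4×. Doses were one drug alone or a fixed anchor-drug dose plus five library-drug doses (not always all listed) in √10 steps, and values are duplicate-plate medians.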

Cell Line | relative viability
NCI-H1623 | 0.45
NCI-H727 | 0.595
NCI-H1650 | 0.487
NCI-H1993 | 0.525
SW 1573 | 0.611
NCI-H838 | 0.297
LCLC-103H | 0.495
NCI-H520 | 0.198
NCI-H2126 | 0.864
EMC-BAC-2 | 0.357
NCI-H2085 | 0.706
HCC-366 | 0.843
NCI-H1666 | 0.859
NCI-H596 | 0.761
LK-2 | 0.18
NCI-H2087 | 0.359

Cell Line | relative viability
NCI-H2342 | 0.694
SK-MES-1 | 0.589
H3255 | 0.493
COR-L23 | 0.787
COR-L 105 | 0.644
LOU-NH91 | 0.667
ChaGo-K-1 | 0.512
NCI-H2170 | 0.742
NCI-H2405 | 0.644
HOP-62 | 0.792
HCC-44 | 0.6
SW 900 | 0.602
NCI-H1648 | 0.245
NCI-H441 | 0.621
NCI-H1395 | 0.621
NCI-H1793 | 0.326

Same assay, conditions: first compound 0.03162 µM

Cell Line | relative viability
NCI-H522 | 0.608
NCI-H1623 | 0.384
NCI-H727 | 0.791
NCI-H1993 | 0.535
SW 1573 | 0.766
NCI-H838 | 0.357
LCLC-103H | 0.406
NCI-H520 | 0.243
NCI-H2126 | 0.705
EMC-BAC-2 | 0.417
NCI-H2085 | 0.673
HCC-366 | 0.964
NCI-H1666 | 0.834
NCI-H596 | 0.693
LK-2 | 0.181
NCI-H2087 | 0.639
NCI-H2342 | 0.628
SK-MES-1 | 0.693
COR-L23 | 0.88
COR-L 105 | 0.441
ChaGo-K-1 | 0.491
NCI-H2170 | 0.606
NCI-H2405 | 0.724
HOP-62 | 0.986
HCC-44 | 0.591
SW 900 | 0.604
NCI-H1648 | 0.292
NCI-H441 | 0.626
NCI-H1395 | 0.649
NCI-H1793 | 0.309

Same assay, conditions: first compound 0.1 µM

Cell Line | relative viability
NCI-H522 | 0.575
NCI-H1623 | 0.414
NCI-H727 | 0.543
NCI-H1650 | 0.56
NCI-H1993 | 0.564
SW 1573 | 0.703
NCI-H838 | 0.376
LCLC-103H | 0.44
NCI-H520 | 0.183
NCI-H2126 | 0.664
EMC-BAC-2 | 0.398
NCI-H2085 | 0.84
HCC-366 | 0.96
NCI-H1666 | 0.862
NCI-H596 | 0.655
LK-2 | 0.155
NCI-H2087 | 0.587

Cell Line | relative viability
NCI-H2342 | 0.629
SK-MES-1 | 0.594
H3255 | 0.676
COR-L23 | 0.848
COR-L 105 | 0.704
LOU-NH91 | 0.734
ChaGo-K-1 | 0.567
NCI-H2170 | 0.706
NCI-H2405 | 0.664
HOP-62 | 0.916
HCC-44 | 0.598
SW 900 | 0.545
NCI-H1648 | 0.246
NCI-H441 | 0.758
NCI-H1395 | 0.551
NCI-H1793 | 0.241

Same assay, conditions: first compound 0.3162 µM

Cell Line | relative viability
NCI-H522 | 0.664
NCI-H1623 | 0.386
NCI-H727 | 0.519
NCI-H1650 | 0.273
NCI-H1993 | 0.507
SW 1573 | 0.572
NCI-H838 | 0.338
LCLC-103H | 0.367
NCI-H520 | 0.147
NCI-H2126 | 0.721
EMC-BAC-2 | 0.333
NCI-H2085 | 0.663
HCC-366 | 0.822
NCI-H1666 | 0.886
NCI-H596 | 0.648
LK-2 | 0.121
NCI-H2087 | 0.63

Cell Line | relative viability
NCI-H2342 | 0.674
SK-MES-1 | 0.565
H3255 | 0.37
COR-L23 | 0.667
COR-L 105 | 0.519
LOU-NH91 | 0.478
ChaGo-K-1 | 0.548
NCI-H2170 | 0.619
NCI-H2405 | 0.666
HOP-62 | 0.83
HCC-44 | 0.51
SW 900 | 0.368
NCI-H1648 | 0.26
NCI-H441 | 0.564
NCI-H1395 | 0.448
NCI-H1793 | 0.229

Same assay, conditions: first compound 1 µM

Cell Line | relative viability
NCI-H522 | 0.687
NCI-H1623 | 0.452
NCI-H727 | 0.745
NCI-H1650 | 0.396
NCI-H1993 | 0.649
SW 1573 | 0.734
NCI-H838 | 0.294
LCLC-103H | 0.382
NCI-H520 | 0.176
NCI-H2126 | 0.687
EMC-BAC-2 | 0.37
NCI-H2085 | 0.807
HCC-366 | 0.979
NCI-H1666 | 0.764
NCI-H596 | 0.621
LK-2 | 0.176
NCI-H2087 | 0.546

Cell Line | relative viability
NCI-H2342 | 0.622
SK-MES-1 | 0.69
H3255 | 0.602
COR-L23 | 0.8
COR-L 105 | 0.654
LOU-NH91 | 0.728
ChaGo-K-1 | 0.435
NCI-H2170 | 0.707
NCI-H2405 | 0.655
HOP-62 | 0.889
HCC-44 | 0.473
SW 900 | 0.358
NCI-H1648 | 0.235
NCI-H441 | 0.62
NCI-H1395 | 0.497
NCI-H1793 | 0.243

The cell lines below were run with C1=CC2=NC=CN=C2C=C1/C=C/3\C(=O)NC(=O)S3 + CS(=O)(=O)CCNCc1ccc(-c2ccc3ncnc(Nc4ccc(OCc5cccc(F)c5)c(Cl)c4)c3c2)o1 [Lapatinib] (partner 2 µM) in the same assay as above. Settings: first compound 0.02 µM.
Method in brief: as §1

Cell Line | relative viability
NCI-H727 | 0.803
NCI-H1650 | 0.728
EBC-1 | 0.221
NCI-H1703 | 1.06
NCI-H1993 | 0.784
SW 1573 | 1.09
NCI-H838 | 1.06
NCI-H520 | 0.842
NCI-H2126 | 0.625
EMC-BAC-2 | 0.829
NCI-H2085 | 0.725
Calu-6 | 1.05
HCC-366 | 0.999
NCI-H1666 | 0.468
NCI-H596 | 1.1
LK-2 | 1.01

Cell Line | relative viability
NCI-H2087 | 0.859
SK-MES-1 | 0.374
H3255 | 0.318
COR-L23 | 0.832
COR-L 105 | 0.332
IA-LM | 0.69
LOU-NH91 | 0.734
NCI-H2170 | 0.278
NCI-H2405 | 1.24
HOP-62 | 1.04
HCC-44 | 0.961
A549 | 0.893
NCI-H1395 | 1.13
NCI-H1299 | 0.962
NCI-H1793 | 0.702

Same assay, conditions: first compound 0.06325 µM

Cell Line | relative viability
NCI-H727 | 0.706
NCI-H1650 | 0.725
EBC-1 | 0.203
NCI-H1703 | 1.29
NCI-H1993 | 0.776
SW 1573 | 1.36
NCI-H838 | 1.09
NCI-H520 | 0.92
NCI-H2126 | 0.898
EMC-BAC-2 | 0.96
NCI-H2085 | 0.635
Calu-6 | 1.14
HCC-366 | 0.927
NCI-H1666 | 0.51
NCI-H596 | 1.25
LK-2 | 0.992
NCI-H2087 | 1.24
SK-MES-1 | 0.656
H3255 | 0.241
COR-L23 | 1.31
COR-L 105 | 0.343
LOU-NH91 | 0.786
NCI-H2170 | 0.271
NCI-H2405 | 1.39
HOP-62 | 0.796
HCC-44 | 1.09
A549 | 1.04
NCI-H1395 | 1.06
NCI-H1299 | 1.04
NCI-H1793 | 0.532

Same assay, conditions: first compound 0.2 µM

Cell Line | relative viability
NCI-H727 | 0.918
NCI-H1650 | 0.937
EBC-1 | 0.191
NCI-H1703 | 1.07
NCI-H1993 | 0.846
SW 1573 | 0.982
NCI-H838 | 0.969
NCI-H520 | 0.832
NCI-H2126 | 0.758
EMC-BAC-2 | 0.962
NCI-H2085 | 0.785
Calu-6 | 0.97
HCC-366 | 1.03
NCI-H1666 | 0.693
NCI-H596 | 1.04
LK-2 | 0.934

Cell Line | relative viability
NCI-H2087 | 0.941
SK-MES-1 | 0.486
H3255 | 0.282
COR-L23 | 0.921
COR-L 105 | 0.368
IA-LM | 0.698
LOU-NH91 | 0.81
NCI-H2170 | 0.272
NCI-H2405 | 1.13
HOP-62 | 0.944
HCC-44 | 0.975
A549 | 1.04
NCI-H1395 | 1.46
NCI-H1299 | 0.946
NCI-H1793 | 0.832

Same assay, conditions: first compound 0.6325 µM

Cell Line | relative viability
NCI-H727 | 0.795
NCI-H1650 | 0.709
EBC-1 | 0.189
NCI-H1703 | 0.946
NCI-H1993 | 0.829
SW 1573 | 0.928
NCI-H838 | 0.827
NCI-H520 | 0.757
NCI-H2126 | 0.739
EMC-BAC-2 | 0.762
NCI-H2085 | 0.755
Calu-6 | 1.06
HCC-366 | 0.905
NCI-H1666 | 0.643
NCI-H596 | 1.06
LK-2 | 0.825

Cell Line | relative viability
NCI-H2087 | 0.98
SK-MES-1 | 0.397
H3255 | 0.238
COR-L23 | 0.771
COR-L 105 | 0.335
IA-LM | 0.771
LOU-NH91 | 0.739
NCI-H2170 | 0.251
NCI-H2405 | 1.11
HOP-62 | 1.05
HCC-44 | 0.993
A549 | 0.9
NCI-H1395 | 0.935
NCI-H1299 | 0.965
NCI-H1793 | 0.725

Same assay, conditions: first compound 2 µM

Cell Line | relative viability
NCI-H727 | 0.297
NCI-H1650 | 0.72
EBC-1 | 0.231
NCI-H1703 | 0.89
NCI-H1993 | 0.743
SW 1573 | 0.978
NCI-H838 | 0.707
NCI-H520 | 0.882
NCI-H2126 | 0.361
EMC-BAC-2 | 0.555
NCI-H2085 | 0.713
Calu-6 | 1
HCC-366 | 1.04
NCI-H1666 | 0.499
NCI-H596 | 1.04
LK-2 | 0.481

Cell Line | relative viability
NCI-H2087 | 0.931
SK-MES-1 | 0.406
H3255 | 0.217
COR-L23 | 0.923
COR-L 105 | 0.289
IA-LM | 0.65
LOU-NH91 | 0.585
NCI-H2170 | 0.246
NCI-H2405 | 0.323
HOP-62 | 0.958
HCC-44 | 0.793
A549 | 0.874
NCI-H1395 | 0.963
NCI-H1299 | 0.993
NCI-H1793 | 0.773
